# Laboratory results: patent US9290459B1, “Substituted bicyclic dihydropyrimidinones and their use as inhibitors of neutrophil elastase activity” (Boehringer Ingelheim International GmbH, priority 2013, dated 2016)
# Target: Human neutrophil elastase (Homo sapiens (Human), UniProt P08246)
# Experiment: Human Neutrophil Elastase Assay
# Format: biochemical
# Conditions: human neutrophil elastase, substrate MeOSuc-Ala-Ala-Pro-Val-AMC 250 μM, pH 7.5; read-out: IC50
# Human neutrophil elastase, sequence (P08246 30-247): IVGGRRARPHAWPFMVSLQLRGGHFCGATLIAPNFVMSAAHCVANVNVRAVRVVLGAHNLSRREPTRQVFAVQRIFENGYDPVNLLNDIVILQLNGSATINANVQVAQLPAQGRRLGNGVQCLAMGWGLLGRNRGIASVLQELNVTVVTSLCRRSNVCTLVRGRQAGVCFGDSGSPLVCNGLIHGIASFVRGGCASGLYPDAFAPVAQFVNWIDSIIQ
row,Structure (SMILES),IC50 [nM]
1,CS(=O)(=O)c1cc(C#N)ccc1[C@@H]1C2=C(CCC2=O)N(c2cccc(C(F)(F)F)c2)C(=O)N1C(=O)NC1CCOCC1 [Example 47.15],< 1
2,"N#Cc1ccc([C@H]2C3=C(CCC3=O)N(c3cccc(C(F)F)c3)C(=O)N2C(=O)NCCCO)cc1 [Example 52B, (S)-4-(4-Cyanophenyl)-1-(3-(difluoromethyl)phenyl)-N-(3-hydroxypropyl)-2,5-dioxo-4,5,6,7-tetrahydro-1H-cyclopenta[d]pyrimidine-3(2H)-carboxamide]",619
3,"C[S+]([O-])c1cc(C#N)ccc1C1NC(=O)N(c2cccc(C(F)(F)F)c2)C2=C1C(=O)CC2 (single isomer, unassigned) [Example 17A, 4-(2,5-dioxo-1-(3-(trifluoromethyl)phenyl)-2,3,4,5,6,7-hexahydro-1H-cyclopenta[d]pyrimidin-4-yl)-3-(methylsulfinyl)benzonitrile]",8.1
4,"CNC(=O)N1C(=O)N(c2cccc(C(F)(F)F)c2)C2=C(C(=O)CC2)C1c1ccc(C#N)cc1F (stereo not shown) [Example 49, 4-(4-Cyano-2-fluorophenyl)-N-methyl-2,5-dioxo-1-(3-(trifluoromethyl)phenyl)-4,5,6,7-tetrahydro-1H-cyclopenta[d]pyrimidine-3(2H)-carboxamide]",1.8
5,"N#Cc1ccc(C2C3=C(CCC3=O)N(c3cccc(C(F)(F)F)c3)C(=O)N2CC(N)=O)cc1 (stereo not shown) [Example 5, 2-(4-(4-Cyanophenyl)-2,5-dioxo-1-(3-(trifluoromethyl)phenyl)-6,7-dihydro-1H-cyclopenta[d]pyrimidin-3(2H,4H,5H)-yl)acetamide]",11.2
6,"CS(=O)(=O)N1C(=O)N(c2cccc(C(F)F)c2)C2=C(C(=O)CC2)C1c1ccc(C#N)cc1 (stereo not shown) [Example 36, 4-(1-(3-(Difluoromethyl)phenyl)-3-(methylsulfonyl)-2,5-dioxo-2,3,4,5,6,7-hexahydro-1H-cyclopenta[d]pyrimidin-4-yl)benzonitrile]",7.2
7,"C[S+]([O-])c1cc(C#N)ccc1C1NC(=O)N(c2cccc(C(F)(F)F)c2)C2=C1C(=O)CC2 (single isomer, unassigned) [Example 17B, 4-(2,5-dioxo-1-(3-(trifluoromethyl)phenyl)-2,3,4,5,6,7-hexahydro-1H-cyclopenta[d]pyrimidin-4-yl)-3-(methylsulfinyl)benzonitrile]",9.4
8,"CN1C(=O)N(c2cccc(C(F)F)c2)C2=C(C(=O)CC2)C1c1ccc(C#N)cc1 (stereo not shown) [Example 26, 4-(1-(3-(Difluoromethyl)phenyl)-3-methyl-2,5-dioxo-2,3,4,5,6,7-hexahydro-1H-cyclopenta[d]pyrimidin-4-yl)benzonitrile]",9.4
9,"CS(=O)(=O)N1C(=O)N(c2cccc(C(F)(F)F)c2)C2=C(C(=O)CC2)[C@@H]1c1ccc(C#N)cc1 [Example 9B, (S)-4-(3-(Methylsulfonyl)-2,5-dioxo-1-(3-(trifluoromethyl)phenyl)-2,3,4,5,6,7-hexahydro-1H-cyclopenta[d]pyrimidin-4-yl)benzonitrile]",3180
10,CS(=O)(=O)c1cc(C#N)ccc1C1C2=C(CCC2=O)N(c2cccc(C(F)(F)F)c2)C(=O)N1CCC1CCOCC1 (stereo not shown) [Example 24.6],< 1
11,"CN1C(=O)N(c2ccnc(C(F)(F)F)c2)C2=C(C(=O)CC2)C1c1ccc(C#N)cc1 (stereo not shown) [Example 28, 4-(3-Methyl-2,5-dioxo-1-(2-(trifluoromethyl)pyridin-4-yl)-2,3,4,5,6,7-hexahydro-1H-cyclopenta[d]pyrimidin-4-yl)benzonitrile]",36.7
12,"N#Cc1ccc(C2C3=C(CCC3=O)N(c3cccc(C(F)F)c3)C(=O)N2C(=O)NCCCO)cc1 (stereo not shown) [Example 52, 4-(4-Cyanophenyl)-1-(3-(difluoromethyl)phenyl)-N-(3-hydroxypropyl)-2,5-dioxo-4,5,6,7-tetrahydro-1H-cyclopenta[d]pyrimidine-3(2H)-carboxamide]",< 1
13,CCNC(=O)N1C(=O)N(c2cccc(C(F)(F)F)c2)C2=C(C(=O)CC2)C1c1ccc(C#N)cc1S(=O)(=O)CC (stereo not shown) [Example 51.3],< 1
14,"N#Cc1ccc(C2NC(=O)N(c3cccc(C(F)F)c3)C3=C2C(=O)CC3)cc1 (stereo not shown) [Example 11, 4-(1-(3-(Difluoromethyl)phenyl)-2,5-dioxo-2,3,4,5,6,7-hexahydro-1H-cyclopenta[d]-pyrimidin-4-yl)benzonitrile]",37.4
15,CC1CC2=C(C1=O)C(c1ccc(C#N)cc1)NC(=O)N2c1cccc(C(F)(F)F)c1 (stereo not shown) [Example 15.7],66
16,N#Cc1ccc(C2C3=C(CCC3=O)N(c3ccnc(C(F)(F)F)c3)C(=O)N2C(=O)NC2CC2)cc1 (racemic) [Example 54.3],1.5
17,"N#Cc1ccc(C2NC(=O)N(c3cccc(C(F)(F)F)c3)C3=C2C(=O)CC3)c(F)c1 (stereo not shown) [Example 18, 4-(2,5-Dioxo-1-(3-(trifluoromethyl)phenyl)-2,3,4,5,6,7-hexahydro-1H-cyclopenta[d]-pyrimidin-4-yl)-3-fluorobenzonitrile]",44.2
18,"COC(=O)CN1C(=O)N(c2cccc(C(F)(F)F)c2)C2=C(C(=O)CC2)C1c1ccc(C#N)cc1 (stereo not shown) [Example 3, Methyl 2-(4-(4-Cyanophenyl)-2,5-dioxo-1-(3-(trifluoromethyl)phenyl)-6,7-dihydro-1H-cyclopenta[d]pyrimidin-3(2H,4H,5H)-yl)acetate]",17
19,"N#Cc1ccc([C@H]2NC(=O)N(c3cccc(C(F)(F)F)c3)C3=C2C(=O)CC3)nc1 [Example 15.3A, (S)-6-(2,5-Dioxo-1-(3-(trifluoromethyl)phenyl)-2,3,4,5,6,7-hexahydro-1H-cyclopenta[d]pyrimidin-4-yl)nicotinonitrile]",31.5
20,CS(=O)(=O)c1cc(C#N)ccc1[C@@H]1C2=C(CCC2=O)N(c2cccc(C(F)(F)F)c2)C(=O)N1C(=O)NCC#N [Example 47.3],< 1

row,Structure (SMILES),IC50 [nM]
1,"CS(=O)(=O)c1cc(C#N)ccc1C1C2=C(CCC2=O)N(c2ccnc(C(F)(F)F)c2)C(=O)N1S(C)(=O)=O (stereo not shown) [Example 39, 3-(Methylsulfonyl)-4-(3-(methylsulfonyl)-2,5-dioxo-1-(2-(trifluoromethyl)pyridin-4-yl)-2,3,4,5,6,7-hexahydro-1H-cyclopenta[d]pyrimidin-4-yl)benzonitrile]",7
2,CCNC(=O)N1C(=O)N(c2cccc(C(F)F)c2)C2=C(C(=O)CC2)C1c1ccc(C#N)cc1S(C)(=O)=O (stereo not shown) [Example 53.2],< 1
3,CC(C)NC(=O)N1C(=O)N(c2ccnc(C(F)(F)F)c2)C2=C(C(=O)CC2)C1c1ccc(C#N)cc1 (racemic) [Example 54.4],2.4
4,"N#Cc1ccc(C2NC(=O)N(c3cccc(C(F)(F)F)c3)C3=C2C(=O)CC3)c(Cl)c1 (stereo not shown) [Example 15, 3-Chloro-4-(2,5-dioxo-1-(3-(trifluoromethyl)phenyl)-2,3,4,5,6,7-hexahydro-1H-cyclopenta[d]pyrimidin-4-yl)benzonitrile]",30.1
5,CNC(=O)N1C(=O)N(c2ccnc(C(F)(F)F)c2)C2=C(C(=O)CC2)C1c1ccc(C#N)cc1 (racemic) [Example 54.1],4.9
6,CN1C(=O)N(c2cccc(C(F)(F)F)c2)C2=C(C(=O)CC2)C1c1ccc(C#N)cc1Cl (stereo not shown) [Example 26.4],26.2
7,CC(C)(CO)NC(=O)N1C(=O)N(c2cccc(C(F)(F)F)c2)C2=C(C(=O)CC2)[C@H]1c1ccc(C#N)cc1S(C)(=O)=O [Example 47.14],< 1
8,"CSc1cc(C#N)ccc1C1NC(=O)N(c2cccc(C(F)(F)F)c2)C2=C1C(=O)CC2 (stereo not shown) [Example 16, 4-(2,5-Dioxo-1-(3-(trifluoromethyl)phenyl)-2,3,4,5,6,7-hexahydro-1H-cyclopenta[d]-pyrimidin-4-yl)-3-(methylthio)benzonitrile]",14.9
9,CNC(=O)N1C(=O)N(c2ccnc(C(F)(F)F)c2)C2=C(C(=O)CC2)C1c1ccc(C#N)cc1S(C)(=O)=O (racemic) [Example 56.1],< 1
10,"CSc1cc(C#N)ccc1C1C2=C(CCC2=O)N(c2cccc(C(F)(F)F)c2)C(=O)N1C (stereo not shown) [Example 27.1, 4-(3-methyl-2,5-dioxo-1-(3-(trifluoromethyl)phenyl)-2,3,4,5,6,7-hexahydro-1H-cyclopenta[d]pyrimidin-4-yl)-3-(methylthio)benzonitrile]",4.6
11,CNC(=O)N1C(=O)N(c2cccc(C(F)(F)F)c2)C2=C(C(=O)CC2)C1c1ccc(C#N)cc1Cl (stereo not shown) [Example 50.4],1.2
12,CCS(=O)(=O)c1cc(C#N)ccc1C1C2=C(CCC2=O)N(c2cccc(C(F)(F)F)c2)C(=O)N1C(=O)NC (stereo not shown) [Example 50.7],< 1
13,CC(C)(O)CNC(=O)N1C(=O)N(c2cccc(C(F)F)c2)C2=C(C(=O)CC2)C1c1ccc(C#N)cc1S(C)(=O)=O (stereo not shown) [Example 53.5],< 1
14,CS(=O)(=O)N1C(=O)N(c2cccc(C(F)(F)F)c2)C2=C(C(=O)CC2)C1c1ccc(C#N)cn1 (stereo not shown) [Example 38.1],37.7
15,"COC(=O)N1C(=O)N(c2cccc(C(F)(F)F)c2)C2=C(C(=O)CC2)C1c1ccc(C#N)cc1 (stereo not shown) [Example 8, Methyl 4-(4-Cyanophenyl)-2,5-dioxo-1-(3-(trifluoromethyl)phenyl)-4,5,6,7-tetrahydro-1H-cyclopenta[d]pyrimidine-3(2H)-carboxylate]",4
16,"N#Cc1ccc(C2NC(=O)N(c3cccc(C(F)(F)F)c3)C3=C2C(=O)CC3)cn1 (stereo not shown) [Example 12, 5-(2,5-Dioxo-1-(3-(trifluoromethyl)phenyl)-2,3,4,5,6,7-hexahydro-1H-cyclopenta[d]-pyrimidin-4-yl)picolinonitrile]",201
17,"CS(=O)(=O)c1cc(C#N)ccc1[C@@H]1C2=C(CCC2=O)N(c2cccc(C(F)(F)F)c2)C(=O)N1S(C)(=O)=O [Example 37, 3-(Methylsulfonyl)-4-(3-(methylsulfonyl)-2,5-dioxo-1-(3-(trifluoromethyl)phenyl)-2,3,4,5,6,7-hexahydro-1H-cyclopenta[d]pyrimidin-4-yl)benzonitrile]",< 1
18,CS(=O)(=O)c1cc(C#N)ccc1[C@@H]1C2=C(CCC2=O)N(c2cccc(C(F)(F)F)c2)C(=O)N1C(=O)NCC1CC(O)C1 (stereo partly shown) [Example 47.16],< 1
19,CCNC(=O)N1C(=O)N(c2cccc(C(F)(F)F)c2)C2=C(C(=O)CC2)C1c1ccc(C#N)cc1F (stereo not shown) [Example 49.1],1.2
20,CCS(=O)(=O)c1cc(C#N)ccc1C1C2=C(CCC2=O)N(c2cccc(C(F)(F)F)c2)C(=O)N1C (stereo not shown) [Example 27.3],1.2
